Measurements: US11905273B2, “Inhibitors for the B-catenin/B-cell lymphoma 9 (BCL9) protein-protein interaction” (H. LEE MOFFITT CANCER CENTER AND RESEARCH INSTITUTE, INC., priority 2017, dated 2024)
Structures can show the parent of a compound that is named as a salt. Where two headings read alike, the source gives them in different places.

What was measured:
β-catenin/BCL9 = β-catenin/BCL9 (Homo sapiens (Human), UniProt P35222); assay: AlphaScreen competitive inhibition assay of the β-catenin/BCL9 interaction; type: binding; details: read-out: Ki ± SD β-catenin/BCL9
Experimental: AlphaScreen Assays. All experiments were performed in shite opaque 384-well plates from PerkinElmer (Waltham, MA) with an assay buffer of 25 mM HEPES (pH=7.4), 100 Mm nAcL, 0.1% BSA, and 0.01% Triton X-100. All sample signals were read on a excitation wavelength was set at 680 nm and emission at 570 nm. All of the final reaction volumes were set to 25 μL. In the cross-titration experiments of the wild-type β-catenin//wild-ty-e BCL9 interaction, N-terminally biotinlyated BCL9 (from 0 to 60 nM) and C-terminally His6-tagged μcatenin (2.5, 5, 10, 20, 40, and 80 nM) were titrated in 20 μg/mL) were added. The mixture was then covered black and incubated at 4° C. for 1 h before detection. All addition and incubation was made under subdued lighting conditions due to the photosensitivity of the beads. The data were analyzed by nonlinear least-square analyses using GraphPad Prism 5.0. Each experiment was repeated three times, and the results were expressed as mean ±standard deviation. The competitive binding experiments were performed to determine the apparent Kd values. The rule of the competitive binding experiments for associating the IC50 value with the Kd value are: (1) the expected Kd value should be 10 times higher than the concentration of either tested protein: (2) the concentrations of both tested proteins should be lower than the binding capacities of their respective beads; and (3) the concentration of the target protein (His6-tagged β-catenin) should be 10 times lower than that of the ligand protein (biotinylated BCL9). […] The donor and acceptor beads were added to a final concentration of 10 μg/mL in 25 μL assay buffer. The mixture was covered black and incubated for 1 h at 4° C. before detection. The IC50 values, which sere also the apparent Kd values from the AlphaScreen assay, were determined by nonlinear least-square analyses using GraphPad Prism 5.0. Each experiment was repeated three times, and the results were expressed as mean ±standard deviation.
For the β-catenin/BCL9 competitive inhibition assay, 5 nM of biotinylated BCL9 and 40 nM of His6-tagged β-catenin were incubated in assay buffer at 4° C. for 30 min. Different concentrations of the tested inhibitor were added and incubated in 20 μL assay buffer at 4°C. for another 1 h. All of the above assay plates were covered and gently mixed on an orbital shaker. The donor and acceptor beads were then added to the plates to a final concentration of 10 μg/mL in 25 μL assay buffer. The mixture was incubated for 1 h at 4° C. before detection. The IC50 value was determined by nonlinear least-square analysis of GraphPad Prism 5.0. The inhibition constant (Ki) values were derived from the […] values using a method reported by Nikolovska-Coleska et al.^26. […] The results were expressed as mean ±standard deviation.

SW480 = assay: MTs cancer cell growth inhibition assay, SW480; type: cell-based; details: Wnt/β-catenin-hyperactive, 72 h, mean ± SD (n = 3)
Experimental: (§1) MTs Cell Viability Assay. Colorectal cancer cell lines, SW480 and HCT116, and triple-negative breast cancer cell line MDA-MB-231 were seeded in 96-well plates at 4=10^3 cells/well, maintained overnight at 37°C., and incubated in the presence of 1 and 2 at various concentrations. Cell viability was monitored after 72 h using a freshly prepared mixture of 1 part phenazine methosulfate (PMS, Sigma) solution (0.92 mg/mL) and 19 parts 3-(4,5-dimethylthiazol-2-yl)-5-(3-carboxymethoxyphenyl)-2-(4-sulfophenyl)-2H-tetrazolium (MTs, Promega) solution (2 mg/mL). Cells were incubated in 10 μL of this solution at 37° C. for 3 h, and A490 was measured. […] Experiments were performed in triplicate.

HCT116 = assay: MTs cancer cell growth inhibition assay, HCT116; type: cell-based; details: Wnt/β-catenin-hyperactive, 72 h, mean ± SD (n = 3)
Experimental: as §1

MDA-MB-231 = assay: MTs cancer cell growth inhibition assay, MDA-MB-231; type: cell-based; details: Wnt/β-catenin-hyperactive, 72 h, mean ± SD (n = 3)
Experimental: as §1

A549 = assay: MTs growth inhibition assay, A549; type: cell-based; details: Wnt-latent, mean ± SD (n = 3)
[1] = test system: TOPFlash luciferase reporter (three wild-type Tcf binding sites) in β-catenin-activated HEK239; assay: Wnt-responsive TOPFlash luciferase reporter assay, β-catenin-activated HEK293; type: cell-based; details: 24 h treatment, mean ± SD (n = 3)
Experimental: (§2) Cell transfection and luciferase assay. FuGENE6(E269A, Promega) 96 well plate format was used for the transfection of HEK293 and SW480 cells according to the manufacturer's instruction. HEK293 cells were co-transfected with 45 ng of TOPFlash reporter gene, 135 ng pc DNA3.1-β-catenin, and 20 ng of pCMV-RL normalization reporter gene. SW480 cells were co-transfected with 60 ng of the TOPFlash or FOPFlash reporter gene and 40 ng of pCMV-RL, normalization reporter. Cells were cultured in DMEM and 10% FBS at 37° C. for 24 h, and different concentrations of inhibitors or DMSO was added After 24 h, the luciferase reporter activity was measured using the Dual-Glo system (E2940, Promega). Normalized luciferase activity in response to the treatment with 1 and 2 was compared with that obtained from the cells treated with DMSO. Experiments were performed in triplicate.

[2] = test system: TOPFlash luciferase reporter (three wild-type Tcf binding sites) in SW480; assay: Wnt-responsive TOPFlash luciferase reporter assay, SW480; type: cell-based; details: 24 h treatment, mean ± SD (n = 3)
Experimental: as §2

[3] = AlphaScreen, mean ± standard deviation (n = 3), Ki derived from IC50

β-catenin/BCL9, sequence (P35222 whole entry): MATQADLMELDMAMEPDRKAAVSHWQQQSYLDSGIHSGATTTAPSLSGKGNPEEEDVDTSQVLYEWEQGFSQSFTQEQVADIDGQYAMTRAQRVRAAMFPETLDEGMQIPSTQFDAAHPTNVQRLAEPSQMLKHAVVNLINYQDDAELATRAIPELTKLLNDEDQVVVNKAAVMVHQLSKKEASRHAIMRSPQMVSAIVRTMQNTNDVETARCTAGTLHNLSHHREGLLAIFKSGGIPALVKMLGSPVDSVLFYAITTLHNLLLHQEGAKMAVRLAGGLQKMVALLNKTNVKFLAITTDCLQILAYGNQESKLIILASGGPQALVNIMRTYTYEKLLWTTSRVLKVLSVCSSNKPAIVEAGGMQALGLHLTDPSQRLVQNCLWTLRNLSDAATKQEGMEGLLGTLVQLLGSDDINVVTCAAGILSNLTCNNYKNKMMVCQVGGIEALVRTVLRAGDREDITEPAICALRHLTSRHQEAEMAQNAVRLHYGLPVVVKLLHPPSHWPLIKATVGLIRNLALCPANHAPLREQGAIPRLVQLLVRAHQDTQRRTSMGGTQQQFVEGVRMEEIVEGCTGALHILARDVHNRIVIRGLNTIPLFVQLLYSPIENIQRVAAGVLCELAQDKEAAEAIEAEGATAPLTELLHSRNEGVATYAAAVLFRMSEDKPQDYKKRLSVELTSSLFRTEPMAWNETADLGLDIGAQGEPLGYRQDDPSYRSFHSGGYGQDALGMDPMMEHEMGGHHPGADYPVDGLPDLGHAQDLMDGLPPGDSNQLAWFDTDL

| Ki (β-catenin/BCL9) | IC50 (SW480; Homo sapiens, SW480) | IC50 (HCT116; Homo sapiens, HCT-116) | IC50 (MDA-MB-231; Homo sapiens, MDA-MB-231) | IC50 (A549; Homo sapiens, A549) | IC50 ([2]; Homo sapiens, SW480) | Compound | IC50 ([1]; HEK239) | Ki (β-catenin/BCL9; [3]) | IC50 (SW480) | IC50 (HCT116) | IC50 (A549) | IC50 (MDA-MB-231) | IC50 [2] | IC50 [1] |
| --- | --- | --- | --- | --- | --- | --- | --- | --- | --- | --- | --- | --- | --- | --- |
| 8 ± 1.8 µM | 3.6 ± 1.9 µM | 9.6 ± 2.5 µM | 15 ± 6.1 µM | 23 ± 4.4 µM | 12 ± 1.5 µM | Fc1ccc(-c2cc(-c3ccc4cc(O[C@H]5CCNC5)c(-c5ccc(F)c(F)c5)cc4n3)ccc2O[C@H]2CCNC2)cc1 [Compound 1, 7-(3,4-difluorophenyl)-2-(4′-fluoro-6-((S)-pyrrolidin-3-yloxy)-[1,1′-biphenyl]-3-yl)-6-((S)-pyrrolidin-3-yloxy)quinoline dihydrochloride] | 26 ± 3.1 µM | – | – | – | – | – | – | – |
| – | 1.7 ± 0.9 µM | 2.2 ± 1 µM | 3.1 ± 1.2 µM | 7.5 ± 2.9 µM | 7.9 ± 1.4 µM | Fc1ccc(-c2cc(-c3cnc4cc(O[C@H]5CCNC5)c(-c5ccc(F)c(F)c5)cc4c3)ccc2O[C@H]2CCNC2)cc1 [Compound 2, 6-(3.4-difluorophenyl)-3-(4′-fluoro-6-((S)-pyrrolidin-3-yloxy)-[1,1′-biphenyl]-3-yl)-7-((S)-pyrrolidin-3-yloxy)quinoline dihydrochloride] | 14 ± 1.5 µM | – | – | – | – | – | – | – |
| – | – | – | – | – | – | O=C(Nc1ccc(O[C@H]2CCNC2)c(-c2ccc(F)cc2)c1)c1ccc(O[C@H]2CCNC2)c(C2CCCCC2)c1 [Compound 3, 3-cyclohexyl-N-(4′-fluoro-6-(((S)-pyrrolidin-3-yl)oxy)-[1,1′-biphenyl]-3-4-(((S)-pyrrolidin-3-yl)oxy)benzamidedihydrochloride] | – | 14 ± 1.6 µM | 6.6 ± 2.7 µM | 3.8 ± 1.5 µM | 3.8 ± 1.5 µM | – | – | – |
| – | – | – | – | – | – | O=C(Nc1ccc(O[C@H]2CCNC2)c(-c2ccc(F)cc2)c1)c1ccc(O[C@H]2CCNC2)c(C2=CCCCC2)c1 [Compound 4, N-(4^+-fluoro-6-(((S)-pyrrolidin-3-yl)oxy)-[1,1′-biphenyl]-6-(((S)-pyrrolidin-3-yl)oxy)-2′,3′,4′,5′-tetrahydro-[1.1′-biphenyl]-3-carboxamidedihydrochloride] | – | 7.1 ± 2.5 µM | 3.7 ± 2 µM | 6.9 ± 3.2 µM | 8.9 ± 2.7 µM | 3.4 ± 1.6 µM | 8.7 ± 2.3 µM | – |
| – | – | – | – | – | – | O=C(Nc1ccc(O[C@H]2CCNC2)c(-c2ccc(F)cc2)c1)c1ccc(O[C@H]2CCNC2)c(C2CCC(C(F)(F)F)CC2)c1 (stereo partly drawn) [Compound 5, N-(-4′-fluoro-6-(((S)-pyrrolidin-3-yl)oxy)-[1,1′-biphenyl]-3-yl)-4-(((S)-pyrrolidin-3-yl)oxy)-3-(4-(trifluoromethyl)cyclohexyl) benzamide dilydrocholoride] | – | 4.2 ± 2.3 µM | 3.6 ± 2.7 µM | 5.6 ± 2.7 µM | 4.8 ± 2.4 µM | 2.3 ± 1 µM | 10 ± 3.3 µM | 10 ± 3.2 µM |
